Measurements published in paper PMC4640066 (Nature Communications, 2015).

Tests used:
[1] = test system: γ-tubulin-dependent, RanQ69L-stimulated aster formation; test: RanQ69L-stimulated aster formation in M-phase Xenopus egg extracts; type: biochemical
Experimental: Cytostatic factor (CSF)-arrested M phase Xenopus egg extracts (CSF extracts) were prepared. Briefly, unfertilized eggs were crushed by 10,700g centrifugation for 20 min. M phase extracts were mixed with 0.5 μM Cy3-labelled α/β-tubulin and various concentrations of compounds. After incubation for 30 min on ice, 15 μM RanQ69L, 200 sperm nuclei per μl or 5% DMSO were added and incubated for 30 min on ice. After incubation for 20 min at 20 °C (for the samples with sperm nuclei, the incubation time was 30 min), 1.5 μl sample was fixed with 1.5 μl fix solution (0.3 volume of 37% formaldehyde, 0.6 volume of 80% glycerol and 0.1 vol of 10 × MMR solution (50 mM HEPES, pH 7.8, 1 M NaCl, 20 mM KCl, 10 mM MgCl2, 20 mM CaCl2 and 1 mM EDTA)), followed by the squash fix.
Images were acquired using a microscope (Axiovert 200 M; Carl Zeiss Inc.) equipped with a plan-Apochromat × 63 NA 1.3 oil objective lens (Carl Zeiss Inc.), a Cy3 emission filter and a Cascade:1 K (Photometrics Inc.) camera, and the AxioVision software (Carl Zeiss Inc.). The aster size and fluorescence intensity were quantified using a macro written in MATLAB[41].

γ-TuSC = target: T1, γ-TuSC (Saccharomyces cerevisiae, UniProt P53378); test: γ-TuSC-stimulated MT polymerization in vitro; type: biochemical; settings: same concentration as ineffective on glutamate, paclitaxel and Tau-induced MT formation
T1 construct: made in house; host or cells: HighFive insect cells
T1 sequence (P53378 1-473): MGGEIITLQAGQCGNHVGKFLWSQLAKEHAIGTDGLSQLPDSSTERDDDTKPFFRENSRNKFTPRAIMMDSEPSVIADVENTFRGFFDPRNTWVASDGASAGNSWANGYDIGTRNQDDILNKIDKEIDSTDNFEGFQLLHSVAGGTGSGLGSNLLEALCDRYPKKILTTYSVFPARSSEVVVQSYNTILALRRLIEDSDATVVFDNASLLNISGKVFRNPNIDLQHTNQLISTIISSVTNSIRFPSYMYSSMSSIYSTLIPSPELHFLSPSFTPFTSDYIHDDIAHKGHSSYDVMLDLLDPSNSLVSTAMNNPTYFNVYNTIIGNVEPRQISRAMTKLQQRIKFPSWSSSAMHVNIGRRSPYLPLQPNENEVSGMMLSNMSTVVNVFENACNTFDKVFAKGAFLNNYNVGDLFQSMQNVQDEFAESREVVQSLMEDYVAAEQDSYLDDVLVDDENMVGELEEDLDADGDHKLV
T1 sequence (P38863 1-823 partner): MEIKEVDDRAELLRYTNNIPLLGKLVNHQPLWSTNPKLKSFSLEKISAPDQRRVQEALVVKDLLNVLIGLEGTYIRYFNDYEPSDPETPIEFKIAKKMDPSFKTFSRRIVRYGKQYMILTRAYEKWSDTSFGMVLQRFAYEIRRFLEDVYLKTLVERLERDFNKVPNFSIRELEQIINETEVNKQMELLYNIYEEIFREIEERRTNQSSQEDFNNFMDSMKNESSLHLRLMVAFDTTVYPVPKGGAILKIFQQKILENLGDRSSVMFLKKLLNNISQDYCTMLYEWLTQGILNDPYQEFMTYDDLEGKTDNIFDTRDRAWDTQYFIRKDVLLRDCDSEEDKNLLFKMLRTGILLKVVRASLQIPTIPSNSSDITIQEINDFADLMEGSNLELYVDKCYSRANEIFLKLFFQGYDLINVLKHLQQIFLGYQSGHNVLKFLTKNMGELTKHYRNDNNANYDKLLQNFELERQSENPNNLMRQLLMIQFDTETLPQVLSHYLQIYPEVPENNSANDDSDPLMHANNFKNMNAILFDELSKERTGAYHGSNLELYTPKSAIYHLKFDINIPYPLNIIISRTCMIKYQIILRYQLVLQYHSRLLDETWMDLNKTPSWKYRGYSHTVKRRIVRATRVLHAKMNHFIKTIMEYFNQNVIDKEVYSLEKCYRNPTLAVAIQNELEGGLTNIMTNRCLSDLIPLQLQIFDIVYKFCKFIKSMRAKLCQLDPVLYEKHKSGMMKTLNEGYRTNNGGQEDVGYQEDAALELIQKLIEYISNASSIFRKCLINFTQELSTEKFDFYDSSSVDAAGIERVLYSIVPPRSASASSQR
T1 sequence (P53540 1-846 partner): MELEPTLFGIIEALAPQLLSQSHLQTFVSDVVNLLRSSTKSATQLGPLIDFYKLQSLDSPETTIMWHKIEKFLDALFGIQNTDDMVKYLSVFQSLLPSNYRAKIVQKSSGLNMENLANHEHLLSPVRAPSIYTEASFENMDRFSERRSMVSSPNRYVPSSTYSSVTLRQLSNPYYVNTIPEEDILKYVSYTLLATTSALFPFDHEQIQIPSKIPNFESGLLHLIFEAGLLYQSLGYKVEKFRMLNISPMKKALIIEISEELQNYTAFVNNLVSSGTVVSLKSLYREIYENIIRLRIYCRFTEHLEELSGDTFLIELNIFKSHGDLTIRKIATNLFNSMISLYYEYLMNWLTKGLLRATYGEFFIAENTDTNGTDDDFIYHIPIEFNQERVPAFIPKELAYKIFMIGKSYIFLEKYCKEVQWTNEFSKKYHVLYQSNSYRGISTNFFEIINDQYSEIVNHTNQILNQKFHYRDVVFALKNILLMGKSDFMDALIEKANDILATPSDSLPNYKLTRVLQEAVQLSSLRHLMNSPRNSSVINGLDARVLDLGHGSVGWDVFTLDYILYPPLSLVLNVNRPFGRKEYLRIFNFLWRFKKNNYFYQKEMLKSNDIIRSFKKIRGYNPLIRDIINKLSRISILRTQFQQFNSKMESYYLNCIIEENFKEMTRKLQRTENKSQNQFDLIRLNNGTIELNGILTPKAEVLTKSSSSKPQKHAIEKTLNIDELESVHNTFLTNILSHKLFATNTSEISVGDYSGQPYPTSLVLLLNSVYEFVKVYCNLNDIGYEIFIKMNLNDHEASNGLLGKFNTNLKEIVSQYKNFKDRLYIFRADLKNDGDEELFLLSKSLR
Experimental: For glutamate-stimulated MT polymerization, 1 mg ml^−1 porcine brain α/β-tubulin was mixed with glutamate (final concentration 1 M) and GTP (final concentration 1 mM) in RB buffer on ice. For paclitaxel-stimulated MT polymerization, 1 mg ml^−1 porcine brain α/β-tubulin was mixed with paclitaxel (final concentration 10 μM) and GTP (final concentration 1 mM) in RB buffer on ice. For recombinant Tau protein-stimulated MT polymerization, 1 mg ml^−1 α/β-tubulin purified from porcine brain and Tau protein were mixed with GTP (final concentration 1 mM) in RB buffer on ice. For γ-TuSC-stimulated MT polymerization, γ-TuSC was mixed with GTP (final concentration 1 mM). One of the compounds and α/β-tubulin were then added. Samples were transferred into cuvettes. Tubulin polymerization was monitored using the absorbance at 350 nm at 37 °C using a thermostatic spectrophotometer (Beckman Coulter).

IC50 ([1]; M-phase-arrested Xenopus egg extracts, 15 μM RanQ69L, 20 min at 20 °C): 9.7 µM
SMILES: COc1cc2c(=O)c(-c3cc(OC)c4c(c3OC)OCO4)coc2cc1OCc1ccccc1 [Gatastatin, O^7-demethylbenzyl AG1]
Effect on number of RanQ69L-dependent asters ([1]; Xenopus egg extracts): without changing the number of asters
Effect on γ-TuSC-stimulated MT polymerization (γ-TuSC): blocked γ-TuSC-stimulated MT polymerization
